“Also recorded” adds a separate entry of the source. Positions of bridges follow the written chain, without caps; N, C: chain ends. Non-standard residues stand in square brackets, D forms with d. Residues, ends and D or L forms follow the SMILES beside them. hArg = N=C(N)NCCCC[C@H](N)C(=O)O; Mpa = O=C(O)CCS
Key:
[1] = more sensitive to the αPTT; cited from earlier work
[2] = Photodegradation upon exposure to ultraviolet light by HPLC analysis; details: for relative stabilities: assuming the dosage codes were equivalent

Compound | effect on PT and αPTT [1] | HPLC peak relative to unexposed control ([2]; UV 282 nm, exposure A) [%] | HPLC peak relative to unexposed control ([2]; UV 282 nm, exposure B) [%] | HPLC peak relative to unexposed control ([2]; UV 282 nm, exposure C) [%] | HPLC peak relative to unexposed control ([2]; UV 282 nm, exposure D) [%] | HPLC peak relative to unexposed control ([2]; UV 282 nm, exposure F) | HPLC peak relative to unexposed control ([2]; UV 308 nm, exposure A) [%] | HPLC peak relative to unexposed control ([2]; UV 308 nm, exposure B) [%] | HPLC peak relative to unexposed control ([2]; UV 308 nm, exposure C) [%] | relative stabilities ([2]; UV282) | photodegradation profile, in words ([2]; UV 282 nm) | HPLC peak relative to unexposed control ([2]; UV 282 nm, remainder of the exposures (after exposure A)) | relative stabilities ([2]; UV308) | photodegradation, in words ([2]; UV 308 nm)
COc1ccc2ccc(S(=O)(=O)N(C)[C@H]3CCN(Cc4csc(C(=N)N)c4)C3=O)cc2c1 [RPR-120844] | prolongs the PT and αPTT in a concentration-dependent manner |  |  |  |  |  |  |  |  |  |  |  |  | 
CCCCS(=O)(=O)N[C@@H](Cc1ccc(OCCCCC2CCNCC2)cc1)C(=O)O [Tirofiban] |  | 81.2 | 59.9 | 37.7 | 15.4 | below the LLOQ; also recorded: indeterminate | 81.2 | 76.9 | 73.0 |  |  |  |  | 
N=C(N)NCCCC[C@@H]1NC(=O)CCSSC[C@@H](C(N)=O)NC(=O)[C@@H]2CCCN2C(=O)[C@H](Cc2c[nH]c3ccccc23)NC(=O)[C@H](CC(=O)O)NC(=O)CNC1=O [Eptifibatide] ([Mpa][hArg]GDWPC-NH2; disulfide 1-7) |  | 47.0 |  |  |  |  |  |  |  | Argatroban>Tirofiban>>Eptifibatide | faster photodegradation profile than the other compounds tested | below the LLOD | Tirofiban>>Argatroban>>Eptifibatide | substantial photodegradation, but to a lesser extent than at UV282

Reference: patent publication US8715920B2, “Composition for preserving platelets during photosensitization” (Biovec Transfusion, LLC, priority 2010, dated 2014)
